Test results: patent US6979686B1, “Substituted pyrazoles as p38 kinase inhibitors” (Pharmacia Corporation, priority 2001, dated 2005)
pIC50: −log10 of the molar value. Where two headings read alike, the source gives them in different places.

Biological target: T1, human p38 kinase alpha (Homo sapiens, UniProt Q16539)
T1 construct: GST (N, cleaved yes); made in house; host or cells: E. coli DH10B
Assay: p38 kinase in vitro assay, phosphorylation of biotinylated PHAS-I with 32P-ATP
Type: biochemical
Settings: for inhibition at 1 µM: read-out: P38 alpha kinase % inhib @ conc.

[1] = in vitro P38-alpha kinase, read-out: P38 alpha kinase IC50
[2] = in vitro P38-alpha kinase inhibition, read-out: P38 alpha kinase IC50

T1 sequence (Q16539 whole entry): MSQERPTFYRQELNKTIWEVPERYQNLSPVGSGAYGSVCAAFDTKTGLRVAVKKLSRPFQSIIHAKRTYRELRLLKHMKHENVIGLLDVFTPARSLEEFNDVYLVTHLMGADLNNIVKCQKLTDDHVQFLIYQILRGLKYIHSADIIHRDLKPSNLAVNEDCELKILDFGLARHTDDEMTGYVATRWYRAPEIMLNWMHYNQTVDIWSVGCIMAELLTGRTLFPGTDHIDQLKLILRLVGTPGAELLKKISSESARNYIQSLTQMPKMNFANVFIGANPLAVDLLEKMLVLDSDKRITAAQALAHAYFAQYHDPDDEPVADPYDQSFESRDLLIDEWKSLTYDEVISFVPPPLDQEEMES

pIC50 [1] | pIC50 [2] | SMILES | further results
7.80 | – | COc1ccc(C(=O)N2CCC(c3[nH]nc(-c4ccc(F)cc4)c3-c3ccncc3)CC2)cc1 [Example B-1391] | –
5.14 | – | CCNC(=O)Cn1nc(-c2ccc(F)cc2)c(-c2ccncc2)c1C [Example B-2311] | –
> 7.00 | – | O=S(=O)(NCCCc1[nH]nc(-c2ccc(F)cc2)c1-c1ccncc1)c1ccccc1Cl [Example B-1268] | –
6.33 | – | Cc1ccccc1C(=O)NCCCc1[nH]nc(-c2ccc(F)cc2)c1-c1ccncc1 [Example B-1321] | –
– | 5.81 | CC(=O)OC(C)C(=O)NC(C)c1[nH]nc(-c2ccc(F)cc2)c1-c1ccncc1 (stereo not drawn) [Example B-0542] | –
7.33 | – | CS(=O)(=O)c1ccc(S(=O)(=O)N2CCC(c3[nH]nc(-c4ccc(F)cc4)c3-c3ccncc3)CC2)cc1 [Example B-1476] | –
– | 6.38 | CC(NC(=O)c1c(F)ccc(F)c1F)c1[nH]nc(-c2ccc(F)cc2)c1-c1ccncc1 (stereo not drawn) [Example B-0680] | –
6.60 | – | O=C(NCCCc1[nH]nc(-c2ccc(F)cc2)c1-c1ccncc1)c1cc(F)cc(C(F)(F)F)c1 [Example B-1342] | –
– | 6.06 | CN(C)C(=O)NC(Cc1ccccc1)c1[nH]nc(-c2ccc(F)cc2)c1-c1ccncc1 (stereo not drawn) [Example B-0729] | –
6.40 | – | O=C(c1cccc(C(F)(F)F)c1F)N1CCC(c2[nH]nc(-c3ccc(F)cc3)c2-c2ccncc2)CC1 [Example B-1407] | –
5.19 | – | Cc1c(-c2ccncc2)c(-c2ccc(F)cc2)nn1CC(=O)NCCCCN1CCCC1 [Example B-2288] | –
7.04 | – | CC(C)c1cc(C(C)C)c(C(=O)NCCCc2[nH]nc(-c3ccc(F)cc3)c2-c2ccncc2)c(C(C)C)c1 [Example B-1326] | –
– | 5.92 | CCOC(=O)NC(Cc1ccccc1)c1[nH]nc(-c2ccc(F)cc2)c1-c1ccncc1 (stereo not drawn) [Example B-0748] | –
7.33 | – | O=C(NCCCc1[nH]nc(-c2ccc(F)cc2)c1-c1ccncc1)NC1CCN(Cc2ccccc2)CC1 [Example B-1320] | –
5.85 | – | Cc1c(-c2ccncc2)c(-c2ccc(F)cc2)nn1CC(=O)NCCCN(C)C [Example B-2304] | –
– | 7.24 | N#Cc1ccc(S(=O)(=O)NCCc2[nH]nc(-c3ccc(F)cc3)c2-c2ccncc2)cc1 [Example B-1107] | –
– | 5.07 | CC(NC(=O)c1cc2ccccc2s1)c1[nH]nc(-c2ccc(F)cc2)c1-c1ccncc1 (stereo not drawn) [Example B-0673] | –
6.34 | – | Cc1c(-c2ccncc2)c(-c2ccc(F)cc2)nn1CC(=O)NCCC1=CCCCC1 [Example B-2316] | –
– | 5.16 | CC(NC(=O)Nc1ccccc1O)c1[nH]nc(-c2ccc(F)cc2)c1-c1ccncc1 (stereo not drawn) [Example B-0587] | –
– | 5.74 | CC(C)=CC(=O)NC(Cc1ccccc1)c1[nH]nc(-c2ccc(F)cc2)c1-c1ccncc1 (stereo not drawn) [Example B-0846] | –

The next lines start with the molecule.

SMILES | pIC50 [1] | pIC50 [2] | further results
Cc1c(-c2ccncc2)c(-c2ccc(F)cc2)nn1CC(=O)NCc1ccccn1 [Example B-2281] | 6.09 | – | –
O=C(c1ccccc1C(F)(F)F)N1CCC(c2[nH]nc(-c3ccc(F)cc3)c2-c2ccncc2)CC1 [Example B-1399] | 6.85 | – | –
O=C(NCCCc1[nH]nc(-c2ccc(F)cc2)c1-c1ccncc1)c1c(F)cccc1F [Example B-1352] | 7.89 | – | –
O=S(=O)(NCCCc1[nH]nc(-c2ccc(F)cc2)c1-c1ccncc1)c1ccc(S(=O)(=O)c2ccccc2)s1 [Example B-1293] | 6.51 | – | –
O=S(=O)(NCCCc1[nH]nc(-c2ccc(F)cc2)c1-c1ccncc1)c1c(Cl)cccc1Cl [Example B-1258] | 7.15 | – | –
Cc1c(-c2ccncc2)c(-c2ccc(F)cc2)nn1CC(=O)Nc1cc([N+](=O)[O-])cc([N+](=O)[O-])c1 [Example B-2430] | – | – | P38 alpha kinase IC50, uM or % inhib @ conc. (uM): % inhib (@ 10.0 uM): 90.0% @
Cc1c(-c2ccncc2)c(-c2ccc(F)cc2)nn1CC(=O)Nc1c(Cl)cccc1Cl [Example B-2421] | – | – | P38 alpha kinase IC50, uM or % inhib @ conc. (uM): % inhib (@ 10.0 uM): 89.0% 2
CCCCCc1ccc(C(=O)NCc2[nH]nc(-c3ccc(F)cc3)c2-c2ccncc2)cc1 [Example B-0012] | – | – | inhibition at 1 µM (@ 1.0 uM): 30%
COC(=O)C(NC(=O)Cn1nc(-c2ccc(F)cc2)c(-c2ccncc2)c1C)C(C)C (stereo not drawn) [Example B-2365] | – | – | P38 alpha kinase % inhib @ conc. (@ 10.0 uM): 82.0% @
O=S(=O)(NCCCc1[nH]nc(-c2ccc(F)cc2)c1-c1ccncc1)c1ccc(Br)cc1 [Example B-1237] | 6.66 | – | –
Cc1cccc(Cl)c1S(=O)(=O)N[C@H](C)c1[nH]nc(-c2ccc(F)cc2)c1-c1ccncc1 [Example B-0467] | – | > 7.00 | –
Cc1c(-c2ccncc2)c(-c2ccc(F)cc2)nn1CC(=O)Nc1ccccc1Cc1ccccc1 [Example B-2434] | – | – | P38 alpha kinase IC50, uM or % inhib @ conc. (uM): % inhib (@ 10.0 uM): 92.0% @
C[C@@H](NS(=O)(=O)c1ccc(Br)cc1)c1[nH]nc(-c2ccc(F)cc2)c1-c1ccncc1 [Example B-0432] | – | > 7.00 | –
C=CCNC(=O)NC(Cc1ccccc1)c1[nH]nc(-c2ccc(F)cc2)c1-c1ccncc1 (stereo not drawn) [Example B-0734] | – | 6.04 | –
Cc1c(-c2ccncc2)c(-c2ccc(F)cc2)nn1CC(=O)NC1CCCCC1C1CCCCC1 (stereo not drawn) [Example B-2346] | – | – | P38 alpha kinase % inhib @ conc. (@ 10.0 uM): 45.0% @
O=S(=O)(NC(Cc1ccccc1)c1[nH]nc(-c2ccc(F)cc2)c1-c1ccncc1)c1ccccc1F (stereo not drawn) [Example B-0714] | – | 5.43 | –
O=C(O)CCC(=O)N1CCN(c2n[nH]c(-c3ccc(Cl)cc3)c2-c2ccncc2)CC1 [A-321 (dihydrate), 4-[5-(4-chlorophenyl)-4-(4-pyridinyl)-1H-pyrazol-3-yl]-γ-oxo-1-piperazinebutanoic acid, dihydrate] | – | – | pIC50 (Table 8, 1% DMSO, read-out: p38α Kinase Assay IC50): 6.11
O=C(NCCCc1[nH]nc(-c2ccc(F)cc2)c1-c1ccncc1)c1cccnc1 [Example B-1182] | – | – | P38 alpha kinase % inhib @ conc. (uM) (@ 1.0 uM): 72.0% @
COCC(=O)NC(C)c1[nH]nc(-c2ccc(F)cc2)c1-c1ccncc1 (stereo not drawn) [Example B-0543] | – | 5.81 | –
Cc1ccc(S(=O)(=O)NC(Cc2ccccc2)c2[nH]nc(-c3ccc(F)cc3)c2-c2ccncc2)cc1 (stereo not drawn) [Example B-0721] | – | 5.42 | –
CC(NC(=O)c1cccc(Cl)c1)c1[nH]nc(-c2ccc(F)cc2)c1-c1ccncc1 (stereo not drawn) [Example B-0702] | – | 7.44 | –
Cc1cccc(C(=O)NCCc2[nH]nc(-c3ccc(F)cc3)c2-c2ccncc2)c1 [Example B-1143] | – | 6.77 | –
CN(C)c1cccc2c(S(=O)(=O)NCCCc3[nH]nc(-c4ccc(F)cc4)c3-c3ccncc3)cccc12 [Example B-1249] | 6.62 | – | –
O=C(NCc1ccc(S(=O)(=O)NCCc2[nH]nc(-c3ccc(F)cc3)c2-c2ccncc2)s1)c1ccccc1 [Example B-1108] | – | 6.66 | –
C=CCOC(=O)NCCc1[nH]nc(-c2ccc(F)cc2)c1-c1ccncc1 [Example B-0985] | – | – | P38 alpha kinase % inhib @ conc. (uM) (@ 1.0 uM): 86.0% @

SMILES | pIC50 [1] | pIC50 [2] | further results
Cc1ccc(C)c(S(=O)(=O)NCCc2[nH]nc(-c3ccc(F)cc3)c2-c2ccncc2)c1 [Example B-1096] | – | > 7.00 | –
CCOC(=O)CC(NC(=O)Cn1nc(-c2ccc(F)cc2)c(-c2ccncc2)c1C)C(=O)OCC (stereo not drawn) [Example B-2352] | – | – | P38 alpha kinase % inhib @ conc. (@ 10.0 uM): 37.0% @
Cc1ccc(S(=O)(=O)NC(Cc2ccccc2)C(=O)NC(Cc2ccccc2)c2[nH]nc(-c3ccc(F)cc3)c2-c2ccncc2)cc1 (stereo not drawn) [Example B-0827] | – | 4.81 | –
O=S(=O)(c1ccccc1Br)N1CCC(c2[nH]nc(-c3ccc(F)cc3)c2-c2ccncc2)CC1 [Example B-1458] | 6.02 | – | –
O=C(NCc1[nH]nc(-c2ccc(F)cc2)c1-c1ccncc1)c1cc(Cl)cc(Cl)c1 [Example B-0020] | – | – | inhibition at 1 µM (@ 1.0 uM): 73%
O=S(=O)(Cc1ccccc1)NCCCc1[nH]nc(-c2ccc(F)cc2)c1-c1ccncc1 [Example B-1194] | – | – | P38 alpha kinase % inhib @ conc. (uM) (@ 1.0 uM): 87.0% @
Cc1c(-c2ccncc2)c(-c2ccc(F)cc2)nn1CC(=O)NCCc1cccnc1 [Example B-2291] | 7.72 | – | –
CCOC(=O)NCCCc1[nH]nc(-c2ccc(F)cc2)c1-c1ccncc1 [Example B-1231] | – | – | P38 alpha kinase % inhib @ conc. (@ 1.0 uM): 94.0% @
Cc1c(-c2ccncc2)c(-c2ccc(F)cc2)nn1CC(=O)NC1CC1 [Example B-2341] | – | – | P38 alpha kinase % inhib @ conc. (@ 10.0 uM): 75.0% @
CC(NS(=O)(=O)c1cc(Cl)cc(Cl)c1)c1[nH]nc(-c2ccc(F)cc2)c1-c1ccncc1 (stereo not drawn) [Example B-0641] | – | 6.24 | –
COc1ccc(S(=O)(=O)NCCCc2[nH]nc(-c3ccc(F)cc3)c2-c2ccncc2)cc1OC [Example B-1205] | – | – | P38 alpha kinase % inhib @ conc. (@ 1.0 uM): 74.0% @
CN(C)C(=O)NCCc1[nH]nc(-c2ccc(F)cc2)c1-c1ccncc1 [Example B-1035] | – | – | P38 alpha kinase % inhib @ conc. (uM) (@ 1.0 uM): 75.0% @
CC(C)c1cc(C(C)C)c(C(=O)NCc2[nH]nc(-c3ccc(F)cc3)c2-c2ccncc2)c(C(C)C)c1 [Example B-0030] | – | – | inhibition at 1 µM (@ 1.0 uM): 92%
O=C(NCCc1[nH]nc(-c2ccc(F)cc2)c1-c1ccncc1)c1ccccc1C(F)(F)F [Example B-0996] | – | – | P38 alpha kinase % inhib @ conc. (uM) (@ 1.0 uM): 54.0% @
CC(NC(=O)NC(Cc1ccccc1)c1[nH]nc(-c2ccc(F)cc2)c1-c1ccncc1)c1ccccc1 (stereo not drawn) [Example B-0736] | – | 4.59 | –
CC(NC(=O)c1ccccc1Cl)c1[nH]nc(-c2ccc(F)cc2)c1-c1ccncc1 (stereo not drawn) [Example B-0691] | – | 6.80 | –
CCN(CC)C(=O)NC(Cc1ccccc1)c1[nH]nc(-c2ccc(F)cc2)c1-c1ccncc1 (stereo not drawn) [Example B-0787] | – | 5.82 | –
CCN1CCN(C(=O)Cn2nc(-c3ccc(F)cc3)c(-c3ccncc3)c2C)CC1 [Example B-2368] | – | – | P38 alpha kinase % inhib @ conc. (@ 10.0 uM): 65.0% @
NC(=O)NCCCc1[nH]nc(-c2ccc(F)cc2)c1-c1ccncc1 [Example B-1207] | – | – | P38 alpha kinase % inhib @ conc. (@ 1.0 uM): 90.0% @
CS(=O)(=O)c1ccccc1S(=O)(=O)NCCCc1[nH]nc(-c2ccc(F)cc2)c1-c1ccncc1 [Example B-1294] | 7.89 | – | –
COc1ccc(C)cc1S(=O)(=O)NCCc1[nH]nc(-c2ccc(F)cc2)c1-c1ccncc1 [Example B-1098] | – | > 7.00 | –
CC(NS(=O)(=O)c1c(Cl)cccc1Cl)c1[nH]nc(-c2ccc(F)cc2)c1-c1ccncc1 (stereo not drawn) [Example B-0630] | – | 7.22 | –
Cc1c(-c2ccncc2)c(-c2ccc(F)cc2)nn1CC(=O)NCCc1ccc(F)cc1 [Example B-2271] | 6.03 | – | –
CC(NC(=O)c1ccc(F)c(F)c1)c1[nH]nc(-c2ccc(F)cc2)c1-c1ccncc1 (stereo not drawn) [Example B-0678] | – | 6.42 | –
